Laboratory results reported in patent US11628220B2, “Pharmaceutical composition and methods of uses” (Foresee Pharmaceuticals Co., Ltd., priority 2016, dated 2023).
≈ marks a conversion by molar mass, not a printed value. Blank lines part the entries; values can stand above or below the molecule they belong to.

Columns and labels:
Assay type in all cases: physicochemical
[1] = Aqueous solubility in different cyclodextrin solutions (excess compound, shaken 24 hours, HPLC); details: aqueous cyclodextrin solution, thermodynamic from solid, room temperature, read-out: Solubility in CD's solution (concentration of compound)
Experimental: (§1) In order to test the effect of various CDs on the aqueous solubility of compound IVE, 1 mL of each of the following aqueous solutions as described in Table 2 was prepared. […] Excess IVE was present in all samples at all times to obtain solubility. After 24-hours, the samples were centrifuged. […] The size of the compound may allow it to form an inclusion complex, resulting in a higher aqueous solubility.
as §1, with “compound IVP,” for “compound IVE,”, “Table 3” for “Table 2”, “Excess IVP” for “Excess IVE”, “all times.” for “all times to obtain solubility.”
as §1, with “compound IVO,” for “compound IVE,”, “Table 4” for “Table 2”, “Excess IVO” for “Excess IVE”, “all times.” for “all times to obtain solubility.”, “inclusion body” for “inclusion”
as §1, with “compound IVQ,” for “compound IVE,”, “Table 5” for “Table 2”, “Excess IVQ” for “Excess IVE”, “all times.” for “all times to obtain solubility.”, “inclusion body” for “inclusion”

[2] = Comparable solubility test for IVO ASD-01 in DI water; details: 1.5 ml DI water
Experimental: The samples were centrifuged at 3 and 24 hours.

[3] = Solubility of compound IVO in solutions containing L-Arginine; details: thermodynamic from solid
From the text: After 24-hours, the samples were centrifuged. […] One possibility is that L-Arginine may help promote the formation of inclusion complex between IVO and MBCD.

[4] = aqueous with cosolvent or surfactant or cyclodextrin, ACD 40 mg/ml
[5] = aqueous with cosolvent or surfactant or cyclodextrin, HPBCD 100 mg/ml
[6] = aqueous with cosolvent or surfactant or cyclodextrin, HPGCD 100 mg/ml
[7] = aqueous with cosolvent or surfactant or cyclodextrin, MBCD 100 mg/ml
[8] = aqueous with cosolvent or surfactant or cyclodextrin, SBEBCD 100 mg/ml

- solubility at 24 h ([1]; aqueous with cosolvent or surfactant or cyclodextrin, ACD 5 mg/ml): 37 µg/mL (≈ 93.8 µM)
- solubility at 24 h ([1]; aqueous with cosolvent or surfactant or cyclodextrin, ACD 10 mg/ml): 30 µg/mL (≈ 76.1 µM)
- solubility at 24 h ([1]; aqueous with cosolvent or surfactant or cyclodextrin, ACD 15 mg/ml): 26 µg/mL (≈ 65.9 µM)
- solubility at 24 h ([1]; aqueous with cosolvent or surfactant or cyclodextrin, ACD 20 mg/ml): 13 µg/mL (≈ 33 µM)
- solubility at 24 h ([1]; aqueous with cosolvent or surfactant or cyclodextrin, ACD 30 mg/ml): 10 µg/mL (≈ 25.4 µM)
- solubility at 24 h [1, 4]: 17 µg/mL (≈ 43.1 µM)
- solubility at 24 h ([1]; aqueous with cosolvent or surfactant or cyclodextrin, HPBCD 25 mg/ml): 37 µg/mL (≈ 93.8 µM)
- solubility at 24 h ([1]; aqueous with cosolvent or surfactant or cyclodextrin, HPBCD 50 mg/ml): 83 µg/mL (≈ 210 µM)
- solubility at 24 h ([1]; aqueous with cosolvent or surfactant or cyclodextrin, HPBCD 75 mg/ml): 108 µg/mL (≈ 274 µM)
- solubility at 24 h [1, 5]: 184 µg/mL (≈ 466 µM)
- solubility at 24 h ([1]; aqueous with cosolvent or surfactant or cyclodextrin, HPBCD 150 mg/ml): 312 µg/mL (≈ 791 µM)
- solubility at 24 h ([1]; aqueous with cosolvent or surfactant or cyclodextrin, HPBCD 200 mg/ml): 467 µg/mL (≈ 1180 µM)
- solubility at 24 h ([1]; aqueous with cosolvent or surfactant or cyclodextrin, HPGCD 25 mg/ml): 9 µg/mL (≈ 22.8 µM)
- solubility at 24 h ([1]; aqueous with cosolvent or surfactant or cyclodextrin, HPGCD 50 mg/ml): 16 µg/mL (≈ 40.6 µM)
- solubility at 24 h ([1]; aqueous with cosolvent or surfactant or cyclodextrin, HPGCD 75 mg/ml): 6 µg/mL (≈ 15.2 µM)
- solubility at 24 h [1, 6]: 2 µg/mL (≈ 5.07 µM)
- solubility at 24 h ([1]; aqueous with cosolvent or surfactant or cyclodextrin, HPGCD 150 mg/ml): 4 µg/mL (≈ 10.1 µM)
- solubility at 24 h ([1]; aqueous with cosolvent or surfactant or cyclodextrin, HPGCD 200 mg/ml): 3 µg/mL (≈ 7.61 µM)
- solubility at 24 h ([1]; aqueous with cosolvent or surfactant or cyclodextrin, MBCD 25 mg/ml): 244 µg/mL (≈ 619 µM)
- solubility at 24 h ([1]; aqueous with cosolvent or surfactant or cyclodextrin, MBCD 50 mg/ml): 477 µg/mL (≈ 1210 µM)
- solubility at 24 h ([1]; aqueous with cosolvent or surfactant or cyclodextrin, MBCD 75 mg/ml): 673 µg/mL (≈ 1710 µM)
- solubility at 24 h [1, 7]: 1070 µg/mL (≈ 2700 µM)
- solubility at 24 h ([1]; aqueous with cosolvent or surfactant or cyclodextrin, MBCD 150 mg/ml): 1700 µg/mL (≈ 4300 µM)
- solubility at 24 h ([1]; aqueous with cosolvent or surfactant or cyclodextrin, MBCD 200 mg/ml): 1780 µg/mL (≈ 4520 µM)
- solubility at 24 h ([1]; aqueous with cosolvent or surfactant or cyclodextrin, SBEBCD 25 mg/ml): 94 µg/mL (≈ 238 µM)
- solubility at 24 h ([1]; aqueous with cosolvent or surfactant or cyclodextrin, SBEBCD 50 mg/ml): 116 µg/mL (≈ 294 µM)
- solubility at 24 h ([1]; aqueous with cosolvent or surfactant or cyclodextrin, SBEBCD 75 mg/ml): 156 µg/mL (≈ 395 µM)
- solubility at 24 h [1, 8]: 174 µg/mL (≈ 441 µM)
- solubility at 24 h ([1]; aqueous with cosolvent or surfactant or cyclodextrin, SBEBCD 150 mg/ml): 315 µg/mL (≈ 799 µM)
- solubility at 24 h ([1]; aqueous with cosolvent or surfactant or cyclodextrin, SBEBCD 200 mg/ml): 761 µg/mL (≈ 1930 µM)
- solubility at 24 h ([1]; water, ACD 0 mg/ml): 26 µg/mL (≈ 65.9 µM)
- solubility at 24 h ([1]; water, HPBCD 0 mg/ml): 26 µg/mL (≈ 65.9 µM)
- solubility at 24 h ([1]; water, HPGCD 0 mg/ml): 26 µg/mL (≈ 65.9 µM)
- solubility at 24 h ([1]; water, MBCD 0 mg/ml): 26 µg/mL (≈ 65.9 µM)
- solubility at 24 h ([1]; water, SBEBCD 0 mg/ml): 26 µg/mL (≈ 65.9 µM)
- pH at 24 hrs equilibrium ([2]; 24 hrs): 8.09
- solubility at 24 h ([2]; pH 8.09, thermodynamic from solid, room temperature, 24 hrs): 11 µg/mL (≈ 27.9 µM)
- solubility at 3 h ([2]; thermodynamic from solid, room temperature, 3 hrs): 2 µg/mL (≈ 5.07 µM)
- solubility at 24 h ([3]; DI water, water, L-Arginine 0 % w/w in DI water): 1.15 µg/mL (≈ 2.91 µM)
- solubility at 24 h ([3]; aqueous L-Arginine solution in DI water, aqueous with cosolvent or surfactant or cyclodextrin, L-Arginine 0.15 % w/w in DI water): 11.1 µg/mL (≈ 28.1 µM)
- solubility at 24 h ([3]; aqueous L-Arginine solution in DI water, aqueous with cosolvent or surfactant or cyclodextrin, L-Arginine 0.31 % w/w in DI water): 15.1 µg/mL (≈ 38.3 µM)
- solubility at 24 h ([3]; aqueous L-Arginine solution in DI water, aqueous with cosolvent or surfactant or cyclodextrin, L-Arginine 0.5 % w/w in DI water): 25.3 µg/mL (≈ 64.2 µM)
- solubility at 24 h ([3]; aqueous L-Arginine solution in DI water, aqueous with cosolvent or surfactant or cyclodextrin, L-Arginine 0.63 % w/w in DI water): 34.2 µg/mL (≈ 86.7 µM)
- solubility at 24 h ([3]; aqueous L-Arginine solution in DI water, aqueous with cosolvent or surfactant or cyclodextrin, L-Arginine 1.25 % w/w in DI water): 46.8 µg/mL (≈ 119 µM)
- solubility at 24 h ([3]; aqueous L-Arginine solution in DI water, aqueous with cosolvent or surfactant or cyclodextrin, L-Arginine 2.5 % w/w in DI water): 85.8 µg/mL (≈ 218 µM)
Compound: Cc1cccc(COc2ccc(Sc3ccoc3C3NC(=O)NC3=O)cc2)c1 (centres unmarked) [IVO, 5-{3-[4-(3-Methyl-benzyloxy)phenylthio]fur-2-yl}imidazolidine-2,4-dione]

- solubility at 24 h [1, 4]: 53 µg/mL (≈ 129 µM)
- solubility at 24 h [1, 5]: 744 µg/mL (≈ 1810 µM)
- solubility at 24 h [1, 6]: 59 µg/mL (≈ 144 µM)
- solubility at 24 h [1, 7]: 3250 µg/mL (≈ 7920 µM)
- solubility at 24 h [1, 8]: 815 µg/mL (≈ 1990 µM)
- solubility at 24 h ([1]; water, ACD 0 mg/ml): 23 µg/mL (≈ 56 µM)
- solubility at 24 h ([1]; water, HPBCD 0 mg/ml): 23 µg/mL (≈ 56 µM)
- solubility at 24 h ([1]; water, HPGCD 0 mg/ml): 23 µg/mL (≈ 56 µM)
- solubility at 24 h ([1]; water, MBCD 0 mg/ml): 23 µg/mL (≈ 56 µM)
- solubility at 24 h ([1]; water, SBEBCD 0 mg/ml): 23 µg/mL (≈ 56 µM)
Compound: COc1cccc(COc2ccc(Sc3ccoc3C3NC(=O)NC3=O)cc2)c1 (centres unmarked) [IVE, 5-{3-[4-(3-Methoxybenzyloxy)phenylthio]fur-2-yl}imidazolidine-2,4-dione]

- solubility at 24 h [1, 4]: 15 µg/mL (≈ 38 µM)
- solubility at 24 h [1, 5]: 727 µg/mL (≈ 1840 µM)
- solubility at 24 h [1, 6]: 1 µg/mL (≈ 2.54 µM)
- solubility at 24 h [1, 7]: 6270 µg/mL (≈ 15900 µM)
- solubility at 24 h [1, 8]: 805 µg/mL (≈ 2040 µM)
- solubility at 24 h ([1]; water, ACD 0 mg/ml): 64 µg/mL (≈ 162 µM)
- solubility at 24 h ([1]; water, HPBCD 0 mg/ml): 64 µg/mL (≈ 162 µM)
- solubility at 24 h ([1]; water, HPGCD 0 mg/ml): 64 µg/mL (≈ 162 µM)
- solubility at 24 h ([1]; water, MBCD 0 mg/ml): 64 µg/mL (≈ 162 µM)
- solubility at 24 h ([1]; water, SBEBCD 0 mg/ml): 64 µg/mL (≈ 162 µM)
Compound: Cc1ccccc1COc1ccc(Sc2ccoc2C2NC(=O)NC2=O)cc1 (centres unmarked) [IVP, 5-{3-[4-(2-Methyl-benzyloxy)phenylthio]fur-2-yl}imidazolidine-2,4-dione]

- solubility at 24 h [1, 4]: 111 µg/mL (≈ 248 µM)
- solubility at 24 h [1, 5]: 1220 µg/mL (≈ 2710 µM)
- solubility at 24 h [1, 7]: 5780 µg/mL (≈ 12900 µM)
- solubility at 24 h [1, 8]: 641 µg/mL (≈ 1430 µM)
- solubility at 24 h ([1]; water, ACD 0 mg/ml): 138 µg/mL (≈ 308 µM)
- solubility at 24 h ([1]; water, HPBCD 0 mg/ml): 138 µg/mL (≈ 308 µM)
- solubility at 24 h ([1]; water, HPGCD 0 mg/ml): 138 µg/mL (≈ 308 µM)
- solubility at 24 h ([1]; water, MBCD 0 mg/ml): 138 µg/mL (≈ 308 µM)
- solubility at 24 h ([1]; water, SBEBCD 0 mg/ml): 138 µg/mL (≈ 308 µM)
Compound: O=C1NC(=O)C(c2occc2Sc2ccc(OCc3cccc(C(F)(F)F)c3)cc2)N1 (centres unmarked) [IVQ, 5-{3-[4-(3-Trifluoromethyl-benzyloxy)phenylthio]fur-2-yl}imidazolidine-2,4-dione]
